# Tested on: 997537-175-T-J1-PDC complex spheroid viability
# Experiment: Anticancer human tumor 997537-175-T-J1-PDC patient-derived colon adenocarcinoma cell line growth inhibition [GQUAD]
# Settings: for IC50: curve of first compound; for viability, T/C: stronger effect = lower value
# Method in brief: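 Multi-cell-type spheroids of tumor cells with HUVEC and mesenchymal stem cells, treated with drug combinations. Concentrations descend in half-log steps from near clinical Cmax, or from 10 microM where Cmax is unknown; viability read-out.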
# [1] = second compound 0.0316 µM, first compound 0.000999 µM
# [2] = second compound 0.0316 µM, first compound 0.00316 µM
# [3] = second compound 0.0316 µM, first compound 0.00999 µM
# [4] = second compound 0.0316 µM, first compound 0.0316 µM
# [5] = second compound 0.0316 µM, first compound 0.0999 µM
# [6] = second compound 0.0316 µM, first compound 0.316 µM
# [7] = second compound 0.1 µM, first compound 0.000999 µM
# [8] = second compound 0.1 µM, first compound 0.00316 µM
# [9] = second compound 0.1 µM, first compound 0.00999 µM
# [10] = second compound 0.1 µM, first compound 0.0316 µM
# [11] = second compound 0.1 µM, first compound 0.0999 µM
# [12] = second compound 0.1 µM, first compound 0.316 µM
# [13] = second compound 0.316 µM, first compound 0.000999 µM
# [14] = second compound 0.316 µM, first compound 0.00316 µM
# [15] = second compound 0.316 µM, first compound 0.00999 µM
# [16] = second compound 0.316 µM, first compound 0.0316 µM
# [17] = second compound 0.316 µM, first compound 0.0999 µM
# [18] = second compound 0.316 µM, first compound 0.316 µM
# [19] = second compound 1 µM, first compound 0.000999 µM
# [20] = second compound 1 µM, first compound 0.00316 µM
# [21] = second compound 1 µM, first compound 0.00999 µM
# [22] = second compound 1 µM, first compound 0.0316 µM
# [23] = second compound 1 µM, first compound 0.0999 µM
# [24] = second compound 1 µM, first compound 0.316 µM
# [25] = second compound 3.16 µM, first compound 0.000999 µM
# [26] = second compound 3.16 µM, first compound 0.00316 µM
# [27] = second compound 3.16 µM, first compound 0.00999 µM
# [28] = second compound 3.16 µM, first compound 0.0316 µM
# [29] = second compound 3.16 µM, first compound 0.0999 µM
# [30] = second compound 3.16 µM, first compound 0.316 µM
# [31] = second compound 10 µM, first compound 0.000999 µM
# [32] = second compound 10 µM, first compound 0.00316 µM
# [33] = second compound 10 µM, first compound 0.00999 µM
# [34] = second compound 10 µM, first compound 0.0316 µM
# [35] = second compound 10 µM, first compound 0.0999 µM
# [36] = second compound 10 µM, first compound 0.316 µM
# 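Further: spheroids exposed to the agents for 7 days.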
# 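Wherever viability, T/C is given: 100% = DMSO vehicle control viability.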
smiles,measurement,setting,value
CC[C@@]1(O)C(=O)OCc2c1cc1n(c2=O)Cc2cc3c(CN(C)C)c(O)ccc3nc2-1 + Cc1[nH]c2ccc(F)cc2c1-c1nc2c3cccnc3c3ncccc3c2[nH]1,IC50,second compound 0.0316 µM,> 316 nM
same,IC50,second compound 0.1 µM,> 316 nM
same,IC50,second compound 0.316 µM,> 316 nM
same,IC50,second compound 1 µM,> 316 nM
same,IC50,second compound 3.16 µM,> 316 nM
same,IC50,second compound 10 µM,> 316 nM
same,"viability, T/C",[1],97.8%
same,"viability, T/C",[2],91.4%
same,"viability, T/C",[3],99.2%
same,"viability, T/C",[4],86.7%
same,"viability, T/C",[5],90.6%
same,"viability, T/C",[6],55.9%
same,"viability, T/C",[7],92%
same,"viability, T/C",[8],89.1%
same,"viability, T/C",[9],75.6%
same,"viability, T/C",[10],82.8%
same,"viability, T/C",[11],61.2%
same,"viability, T/C",[12],54.7%
same,"viability, T/C",[13],85.9%
same,"viability, T/C",[14],72.1%
same,"viability, T/C",[15],81.3%
same,"viability, T/C",[16],97%
same,"viability, T/C",[17],85.5%
same,"viability, T/C",[18],55.1%
same,"viability, T/C",[19],80.8%
same,"viability, T/C",[20],59.6%
same,"viability, T/C",[21],85.8%
same,"viability, T/C",[22],93%
same,"viability, T/C",[23],80.2%
same,"viability, T/C",[24],62.6%
same,"viability, T/C",[25],51.4%
same,"viability, T/C",[26],82.8%
same,"viability, T/C",[27],61%
same,"viability, T/C",[28],51.2%
same,"viability, T/C",[29],90.5%
same,"viability, T/C",[30],70.8%
same,"viability, T/C",[31],71.8%
same,"viability, T/C",[32],82.4%
same,"viability, T/C",[33],77.3%
same,"viability, T/C",[34],62.2%
same,"viability, T/C",[35],62.9%
same,"viability, T/C",[36],58.9%
O=c1[nH]cc(F)c(=O)[nH]1 + CN(C)c1ccc(Nc2c3ccc(NC(=O)CCN4CCCC4)cc3nc3cc(NC(=O)CCN4CCCC4)ccc23)cc1,IC50,second compound 0.0316 µM,> 10000 nM
same,IC50,second compound 0.1 µM,> 10000 nM
same,IC50,second compound 0.316 µM,> 10000 nM
same,IC50,second compound 1 µM,> 10000 nM
same,IC50,second compound 3.16 µM,> 10000 nM
same,IC50,second compound 10 µM,> 10000 nM
same,"viability, T/C",[4],94.8%
same,"viability, T/C","second compound 0.0316 µM, first compound 0.1 µM",90.6%
same,"viability, T/C",[6],93.8%
same,"viability, T/C","second compound 0.0316 µM, first compound 1 µM",75.5%
same,"viability, T/C","second compound 0.0316 µM, first compound 3.16 µM",78.7%
same,"viability, T/C","second compound 0.0316 µM, first compound 10 µM",59.7%
same,"viability, T/C",[10],92.8%
same,"viability, T/C","second compound 0.1 µM, first compound 0.1 µM",83%
same,"viability, T/C",[12],87.9%
same,"viability, T/C","second compound 0.1 µM, first compound 1 µM",66.7%
same,"viability, T/C","second compound 0.1 µM, first compound 3.16 µM",99.8%
same,"viability, T/C","second compound 0.1 µM, first compound 10 µM",84.4%
same,"viability, T/C",[16],76.3%
same,"viability, T/C","second compound 0.316 µM, first compound 0.1 µM",85.6%
same,"viability, T/C",[18],76.9%
same,"viability, T/C","second compound 0.316 µM, first compound 1 µM",76.7%
same,"viability, T/C","second compound 0.316 µM, first compound 3.16 µM",99.3%
same,"viability, T/C","second compound 0.316 µM, first compound 10 µM",87.9%
same,"viability, T/C",[22],76.3%
same,"viability, T/C","second compound 1 µM, first compound 0.1 µM",65.8%
same,"viability, T/C",[24],87.9%
same,"viability, T/C","second compound 1 µM, first compound 1 µM",79.3%
same,"viability, T/C","second compound 1 µM, first compound 3.16 µM",81.5%
same,"viability, T/C","second compound 1 µM, first compound 10 µM",99.3%
same,"viability, T/C",[28],64.2%
same,"viability, T/C","second compound 3.16 µM, first compound 0.1 µM",92.6%
same,"viability, T/C",[30],86.3%
same,"viability, T/C","second compound 3.16 µM, first compound 1 µM",90.7%
same,"viability, T/C","second compound 3.16 µM, first compound 3.16 µM",102%
same,"viability, T/C","second compound 3.16 µM, first compound 10 µM",87.4%
same,"viability, T/C",[34],73.3%
same,"viability, T/C","second compound 10 µM, first compound 0.1 µM",79%
same,"viability, T/C",[36],85.8%
same,"viability, T/C","second compound 10 µM, first compound 1 µM",80%
same,"viability, T/C","second compound 10 µM, first compound 3.16 µM",97%
same,"viability, T/C","second compound 10 µM, first compound 10 µM",63.5%
CCc1c2c(nc3ccc(O)cc13)-c1cc3c(c(=O)n1C2)COC(=O)[C@]3(O)CC + CN(C)c1ccc(Nc2c3ccc(NC(=O)CCN4CCCC4)cc3nc3cc(NC(=O)CCN4CCCC4)ccc23)cc1,IC50,second compound 0.0316 µM,13.8 nM
same,IC50,second compound 0.1 µM,10.3 nM
same,IC50,second compound 0.316 µM,10.2 nM
same,IC50,second compound 1 µM,15.7 nM
same,IC50,second compound 3.16 µM,15.8 nM
same,IC50,second compound 10 µM,21.3 nM
same,"viability, T/C",[1],97.8%
same,"viability, T/C",[2],84.2%
same,"viability, T/C",[3],58.6%
same,"viability, T/C",[4],29.5%
same,"viability, T/C",[5],6.84%
same,"viability, T/C",[6],4.15%
same,"viability, T/C",[7],104%
same,"viability, T/C",[8],83.4%
same,"viability, T/C",[9],50.6%
same,"viability, T/C",[10],22.9%
same,"viability, T/C",[11],9.03%
same,"viability, T/C",[12],4.26%
same,"viability, T/C",[13],97%
same,"viability, T/C",[14],78.4%
same,"viability, T/C",[15],51.6%
same,"viability, T/C",[16],22.6%
same,"viability, T/C",[17],8.39%
same,"viability, T/C",[18],4.2%
same,"viability, T/C",[19],77.5%
same,"viability, T/C",[20],58.7%
same,"viability, T/C",[21],67.6%
same,"viability, T/C",[22],23.9%
same,"viability, T/C",[23],11.6%
same,"viability, T/C",[24],3.86%
same,"viability, T/C",[25],75%
same,"viability, T/C",[26],85%
same,"viability, T/C",[27],57.8%
same,"viability, T/C",[28],33.8%
same,"viability, T/C",[29],9.84%
same,"viability, T/C",[30],4.51%
same,"viability, T/C",[31],83.9%
same,"viability, T/C",[32],84%
same,"viability, T/C",[33],80.4%
same,"viability, T/C",[34],34.2%
same,"viability, T/C",[35],11.7%
same,"viability, T/C",[36],4.48%
